Reference: ChEMBL document CHEMBL1159174, “Spiroketal glycomimetics: the synthesis of a conformationally restrained Sialyl Lewis X mimic” (Bioorg Med Chem Lett, 1995)

What was measured:
[1] = target: T1, E-selectin (Homo sapiens) (UniProt P16581); assay: Ability to inhibit the binding to Selectin E immobilized on SPA beads of radiolabeled HL-60 cell membrane was determined at concentration of 10 mM; assay type: cell membranes
T1 sequence (whole entry): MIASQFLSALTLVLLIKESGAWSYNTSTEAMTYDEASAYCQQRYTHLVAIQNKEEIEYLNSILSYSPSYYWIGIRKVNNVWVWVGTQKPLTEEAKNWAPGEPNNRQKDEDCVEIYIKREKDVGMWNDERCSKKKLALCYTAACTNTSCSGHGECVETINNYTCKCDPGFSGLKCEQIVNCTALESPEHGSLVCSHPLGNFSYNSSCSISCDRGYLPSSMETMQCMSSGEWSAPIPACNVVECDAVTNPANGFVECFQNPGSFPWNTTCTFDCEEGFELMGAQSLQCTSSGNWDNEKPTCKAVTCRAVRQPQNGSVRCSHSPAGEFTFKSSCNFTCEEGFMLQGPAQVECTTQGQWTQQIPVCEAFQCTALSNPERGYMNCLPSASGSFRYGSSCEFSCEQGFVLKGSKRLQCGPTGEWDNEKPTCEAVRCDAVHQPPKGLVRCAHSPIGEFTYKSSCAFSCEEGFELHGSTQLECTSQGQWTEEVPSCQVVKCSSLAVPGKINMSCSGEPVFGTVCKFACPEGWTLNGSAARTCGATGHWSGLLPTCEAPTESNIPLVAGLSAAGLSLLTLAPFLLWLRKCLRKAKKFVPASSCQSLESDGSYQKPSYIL

[2] = target: T2, E-selectin (Homo sapiens, UniProt P16581); assay: Affinity of compound to Selectin E was determined
T2 sequence (P16581 whole entry): T1 sequence (whole entry)

[3] = target: T2, E-selectin; assay: Ability to inhibit the binding to Selectin E immobilized on SPA beads of radiolabeled HL-60 cell membrane was determined; assay type: cell membranes

inhibition [1]	Kd [2]	IC50 [3]	SMILES
35%	–	–	CC(=O)NC1C(O)CC(OC2CCO[C@]3(CCC(OC4OC(C)C(O)C(O)C4O)CO3)C2)(C(=O)O)OC1[C@H](O)[C@H](O)CO (stereo partly drawn)
–	1000 µM	300 µM	CC(=O)N[C@H]1[C@H]([C@H](O)[C@H](O)CO)O[C@@](O[C@H]2[C@@H](O)[C@@H](CO)O[C@@H](O[C@@H]([C@H](O[C@@H]3O[C@@H](C)[C@@H](O)[C@@H](O)[C@@H]3O)[C@H](C=O)NC(C)=O)[C@H](O)CO)[C@@H]2O)(C(=O)O)C[C@@H]1O [SIALYL LEWIS X]
